Measurements taken from ChEMBL document CHEMBL5726747, “Substituted pyrido[3,4-d]pyrimidines and pyrido[4,3-d]pyrimidines as p70S6K inhibitors” (2019).

Key:
[1] = molecular target: Ribosomal protein S6 kinase beta-1 (Homo sapiens, UniProt P23443, T412E); assay: p70S6K Enzyme Assay: p70S6K inhibitor compounds were diluted and plated in 96 well plates. A reaction mixture including the following components were then added to the compound plate to initiate the enzyme reaction: p70S6K (3 nM, T412E mutant, Millipore) was mixed with 24 μM ATP in an assay buffer containing 100 mM Hepes (pH 7.5), 5 mM MgCl2, 1 mM DTT, 0.015% Brij and 1 μM of the substrate peptide FITC-AHA-[…]-OH (derived from the S6 ribosomal protein sequence, FITC=fluorescein isothiocyanate, AHA=6-aminohexanoic acid). The reaction was incubated for 90 min at 25° C., before the addition of 10 mM EDTA to stop the reaction. The proportion of substrate and product (phosphorylated) peptide was analyzed on a Caliper Life Sciences Lab Chip 3000, using a pressure of −1.4 psi, and upstream and downstream voltages of −3000 and −700, respectively. Product peaks were resolved before substrate peaks on the resulting chromatograms. To assess the inhibitory potential of the compounds, IC50 values were determined, as shown above.
[2] = molecular target: RAC-alpha serine/threonine-protein kinase (Homo sapiens, UniProt P31749); assay: AKT/PKB Kinase Assay: In order to measure AKT inhibition in the Caliper Life Sciences LC3000, a TTP Mosquito liquid handling instrument was used to place 125 nl of the appropriate concentration of inhibitor in 100% DMSO (for a dose response curve calculation) into each well of a 384-well plate. To this reaction, the following components were added to a final volume of 12.5 μl: 0.1 ng/μl His-AKT (Full Length) (Invitrogen, Part # P2999, Lot #641228C); 160 μM ATP (Fluka, 02055); 1 mM DTT (Sigma, D0632); 1 mM MgCl2 (Sigma, M1028); 1 μM substrate peptide (sequence FITC-AHA-[…]-NH2), synthesized by Tufts Peptide Synthesis service; 100 mM HEPES pH 7.5 (Calbiochem, 391338); and 0.015% Brij-35 (Sigma, B4184).The reaction was incubated for 90 min at 25° C., and then stopped by the addition of 70 μl of Stop buffer (100 mM HEPES pH 7.5, 0.015% Brij-35, 10 mM EDTA (Sigma, E7889)). The plate was read on a Caliper LC 3000 in an Off-Chip mobility shift assay format, using the following parameters for a 12-sipper chip: screening pressure −2.3 psi, upstream voltage −500, and downstream voltage −3000. These conditions cause unphosphorylated substrate and phosphorylated product peptide to resolve as separate peaks allowing direct measurement of percentage of conversion of substrate to product. The percent conversion was plotted against concentration of inhibitor to produce a sigmoidal dose response curve, from which an IC50 was calculated.
Chain of RAC-alpha serine/threonine-protein kinase (P31749 whole entry): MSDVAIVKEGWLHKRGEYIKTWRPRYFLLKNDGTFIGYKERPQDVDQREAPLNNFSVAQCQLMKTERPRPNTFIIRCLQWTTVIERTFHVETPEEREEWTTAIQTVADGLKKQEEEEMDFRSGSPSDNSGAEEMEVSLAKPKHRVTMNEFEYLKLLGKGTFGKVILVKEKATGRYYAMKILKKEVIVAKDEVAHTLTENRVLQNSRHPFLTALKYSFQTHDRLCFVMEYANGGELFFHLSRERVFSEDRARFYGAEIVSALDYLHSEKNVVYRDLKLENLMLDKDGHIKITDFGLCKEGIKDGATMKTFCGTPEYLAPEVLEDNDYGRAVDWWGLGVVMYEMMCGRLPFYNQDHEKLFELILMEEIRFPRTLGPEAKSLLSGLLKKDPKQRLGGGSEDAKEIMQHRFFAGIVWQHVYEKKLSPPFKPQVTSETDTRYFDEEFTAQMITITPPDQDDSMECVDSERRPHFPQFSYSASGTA

Chain of Ribosomal protein S6 kinase beta-1 (P23443 whole entry T412E): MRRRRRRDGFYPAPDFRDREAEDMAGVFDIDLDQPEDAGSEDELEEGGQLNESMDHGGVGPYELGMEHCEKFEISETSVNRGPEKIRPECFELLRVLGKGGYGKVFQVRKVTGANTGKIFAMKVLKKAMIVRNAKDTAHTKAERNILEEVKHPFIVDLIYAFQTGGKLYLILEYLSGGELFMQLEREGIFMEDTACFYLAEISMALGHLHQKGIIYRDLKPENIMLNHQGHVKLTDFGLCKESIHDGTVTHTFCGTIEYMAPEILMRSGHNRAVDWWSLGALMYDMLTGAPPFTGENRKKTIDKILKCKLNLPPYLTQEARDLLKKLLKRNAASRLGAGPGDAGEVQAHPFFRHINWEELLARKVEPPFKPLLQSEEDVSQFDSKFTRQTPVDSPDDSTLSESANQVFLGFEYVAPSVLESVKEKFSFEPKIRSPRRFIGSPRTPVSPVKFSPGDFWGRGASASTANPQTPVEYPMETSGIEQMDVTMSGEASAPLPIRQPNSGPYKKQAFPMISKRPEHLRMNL

| IC50 [1] [nM] | IC50 [2] [nM] | Structure (SMILES) |
| --- | --- | --- |
| < 25 | < 25 | CNC[C@@H](Nc1ncnc2c(C(N)=O)ccnc12)c1ccc(F)c(Cl)c1 |
| < 25 | < 25 | NC(=O)c1ccnc2c(N[C@H](CN3CCC3)c3ccc(F)c(C(F)F)c3)ncnc12 |
| < 25 | – | CN(C)C[C@@H](Nc1ncnc2c(C(N)=O)ccnc12)c1ccc(Cl)c(F)c1 |
| < 25 | < 25 | NC(=O)c1ccnc2c(N[C@H](CN3CCC3)c3ccc(F)c(C(F)(F)F)c3)ncnc12 |
| < 25 | – | CCNC[C@@H](Nc1ncnc2c(C(N)=O)ccnc12)c1ccc(F)c(Cl)c1 |
| < 25 | – | CCNC[C@@H](Nc1ncnc2c(C(N)=O)ccnc12)c1ccc(F)c(Br)c1 |
| < 25 | < 25 | N#Cc1ccc([C@@H](CN2CCC2)Nc2ncnc3c(C(N)=O)ccnc23)cc1Cl |
